Assay results: US20160158330A1, “METHODS OF PREPARATION AND COMPOSITION OF PEPTIDE CONSTRUCTS USEFUL FOR TREATMENT OF RHEUMATOID ARTHRITIS” (CEL-SCI CORPORATION, priority 2013, published 2016)
Entries after “also recorded” stand apart in the source; their conditions may differ. Where no end group is shown, it is not given here. [ ]: non-standard residue; d: D form. Cit = NC(=O)NCCC[C@H](N)C(=O)O

Key:
IFNγ:IL-4 = assay: T cell polarization by Th1:Th2 cytokine (IFNγ:IL-4) ratio, ELISA; format: cell-based; conditions: 5 μM peptide, splenocytes of PGIA BALB/c mice; baseline ratio around 3.2
Description: (§1) FIG. 3 illustrates T cell proliferation and T cell polarization (TH1:TH2) induced by P70, DerG-PG70 and J-PG70 peptides (Panel A). […] Panel B) T cell polarization by Th1:Th2 cytokine (IFNγ:IL-4) ratios. […] It is noted that these two responses are mutually exclusive. Amounts of IFNγ and IL-4 in culture fluid samples were determined by ELISA (enzyme-linked immunosorbent assay, a common test that uses antibodies and color change to measure protein amounts). The “baseline” value for this ratio, i.e., the value of this ratio in untreated (unpolarized) T cells, is around 3.2 (the black bar, “None,” in FIG. 3B). An increased ratio indicates relatively more IFNγ and/or less IL-4, which in turn indicates a shift towards a Th1 response and away from a Th2 response. A decreased value (below 3.2) indicates relatively more IL-4 and/or less IFNγ and thus a shift towards a Th2 response and away from a Th1 response. Cells were isolated from spleens by gently pushing the organ through a wire cell sieve mesh screen with a sterile 5 cc syringe plunger. The spleens were from BALB/c retired female breeder mice with PGIA (n=3), cultured individually for 5 days in the absence (None) or presence of the different designated peptides (5 μM each) on PG protein (10 m). As has been previously shown, the only cell type incorporating tritiated [^3H]thymidine into DNA are T cells. Therefore, proliferation of splenic T cells was measured in 96 well plates by use of [^3H]thymidine ([…]; specific activity: 2 Ci/mmol, Amersham, Arlington Heights, Ill.) incorporation from day 4 to 5 and expressed as a stimulation index based on the counts per minute normalized to the untreated control (panel A). Treatments were done in triplicate wells for the proliferation assay, and identical triplicate wells were used to harvest culture fluid at 48 hours for cytokine assays. The amounts of IFNγ (a Th1 cytokine) and IL-4 (a Th2 cytokine) in the media of the same cultures were determined by ELISA and expressed as ratios.
(§2) The effect of L.E.A.P.S. conjugates on T cell responses is shown in this example. J-PG70 conjugates modulated the proliferation of T cells isolated from spleen or lymph-node cells from wild type BALB/c mice with PGIA or naïve, PG-TCR-transgenic BALB/c mice.

[1] = system: splenic T cells from BALB/c mice with PGIA; assay: Splenic T cell proliferation, [3H]thymidine incorporation (stimulation index); format: cell-based; conditions: 5 μM peptide, splenocytes of PGIA BALB/c mice, p<0.05
Description: as §1, §2

IL-12p40 = assay: Intracellular expression of IL-12p40 by DCs (flow cytometry); format: cell-based, BALB/c mice
Description: FIG. 2 illustrates the effects of L.E.A.P.S.-PG conjugates on intracellular expression of IL-12p40 by DCs. DCs from BALB/c female retired breeder normal mice (n=3), having no PGIA disease (generated from bone marrow as described under FIG. 1) were incubated for 24 hours with the indicated peptides (5 μM each) at a cell density of 1×10^6 DCs/mL. DCs not receiving treatment (None) or treated with LPS (1 μg/ml) served as negative and positive controls, respectively. At the end of treatment, DCs were harvested and incubated with 1 μg/mL monensin (GolgiStop, BD Biosciences) for 4 hours to prevent cytokine secretion. Surface staining of DCs was done with fluoresecein isothiocyanate-(FITC) conjugated anti-CD11c antibody. The cells were then fixed and permeabilized using BD Biosciences' Cytofix/Cytoperm Kit. Intracellular IL-12 was detected with a phycoerythrin-(PE) labeled antibody to mouse IL-12p40 (eBioscience). Flow cytometry was carried out as described above. The number of IL-12p40+DCs was determined by gating on CD11c+ cells, and the results expressed as the % of IL-12p40+ of all CD11c+DCs. […] The error bars represent ±SEM.

Bone marrow-derived DCs = assay: DC maturation in vitro: MHC class II and CD86 expression by flow cytometry; format: cell-based; conditions: 5 μM peptide, 24 hours, bone marrow-derived DCs of naïve BALB/c mice
Description: FIG. 1 illustrates the effects of PG and L.E.A.P.S.-PG conjugates on DC maturation as indicated by MHC class II and CD86 expression (left and right panels respectively) following treatment (24 hours). […] MFI: mean fluorescence intensity (arbitrary units). […]
To generate DCs, the bone marrow cells were cultured for 9 days in the presence of recombinant mouse granulocyte-macrophage colony stimulating factor (GM-CSF, Sigma-Aldrich, St Louis, Mo.) at a dose of 200 U/ml (Egelston C., Kurko J., Besenyei T. et al. (2012) Suppression of dendritic cell maturation and T cell proliferation by synovial fluid myeloid cells from mice with autoimmune arthritis. Arthritis Rheum 64: 3179-3188). […] After the 24-hour culture with the indicated stimulants, the cells were washed with PBS containing 0.5% bovine serum albumin and 0.01% sodium azide (fluorescence activated cell sorter (FACS) buffer). […]

[2] = system: Th1, Th2, Th17, and regulatory T cells (Tregs); assay: Proportions of Th1, Th2, Th17 and Tregs in spleen cell cultures from vaccinated mice (flow cytometry); format: in vivo; conditions: spleen cell cultures from vaccinated PGIA mice, n=4 mice/group
Description: The proportions of Th1, Th2, Th17, and regulatory T cells (Tregs) in spleen cell cultures from the vaccinated mice were determined by flow cytometry. Protection was associated with decreased proportions of Th1 and Th17 cells, and increases in Th2 cells and Tregs (p<0.05-0.001, Fisher's LSD test; n=4 mice/group). […] This is similar to the pattern of cytokines secreted by the cells.
In this example, the effects of L.E.A.P.S.-PG peptide conjugate vaccination on the proportions of splenic Th1, Th2, Th17, and regulatory T cells (Tregs) are shown in FIG. 8. The proportions of Th1, Th2, Th17, and regulatory T cells (Tregs) in spleen cell cultures from the vaccinated mice were determined by flow cytometry. Protection was associated with decreased proportions of Th1 and Th17 cells, and increases in Th2 cells and Tregs (p<0.05-0.001, Fisher's LSD test; n=4 mice/group).

[3] = system: proteoglycan-induced arthritis (PGIA); assay: L.E.A.P.S. peptide vaccination of PGIA mice, AI scores; format: in vivo; conditions: n=8 mice/group
Excerpt: In this example, in vivo experiments of efficacy and protection are shown in FIG. 4, which indicates groups from a first study of efficacy of vaccine candidates, and related controls.

spleen cells = assay: PG-specific spleen cell proliferation of vaccinated PGIA mice (in vitro assay); format: in vivo; conditions: cells from vaccinated PGIA mice, in vitro stimulation
Excerpt: (§3) The joint sections were stained with hematoxylin and eosin. One representative section per group is shown. […] Protection was associated with reduced PG-specific T cell proliferation.

[4] = system: ankle (tibio-talar) joints; assay: Histology of ankle (tibio-talar) joints of vaccinated PGIA mice; format: in vivo; conditions: PGIA mice 36 days after treatment, conjugate in adjuvant
Excerpt: Histology of ankle (tibio-talar) joints are shown in (A) normal mice and in (B-D) PGIA mice 36 days after undergoing treatment with L.E.A.P.S. conjugates. The normal joint is characterized by smooth cartilage surfaces on the tibia (Ti) and talus (Ta), inflammatory cell-free joint cavity (JC) and synovial tissue (ST). The ST is lined by a thin layer of cells and contains mainly fat tissue. Ankle joints from mice with PGIA shown in (B), treated with PBS in adjuvant, show evidence of synovial thickening (hyperplasia), inflammatory cell accumulation in the JC and ST, as well as partial erosion of cartilage surface (arrows).
as §3

Row | Substance | T cell polarization, Th1:Th2 cytokine (IFNγ:IL-4) ratio versus untreated (IFNγ:IL-4) | T cell proliferation rate (stimulation index) versus untreated [1] | % of IL-12p40+ of all CD11c+ DCs (IL-12p40; peptide 5 μM, 24 hours, untreated group 3.8%) [%] | IL-12 intracellular expression in matured DCs (IL-12p40; 24 hours of incubation) | DC maturation (MHC class II and CD86 surface marker expression) (Bone marrow-derived DCs) | Immune deviation (proportions of Th1, Th2, Th17, Tregs) [2] | Day from which difference from the other groups became statistically significant ([3]; p<0.05 repeated measures ANOVA) [days] | Disease severity (AI scores) ([3]; vaccine in adjuvant) | PG-specific spleen cell proliferation (spleen cells) | Histology of ankle joints (synovial hyperplasia, cell infiltration, cartilage erosion) [4]
1 | DLLKNGERIEKVEGGGATEG(Cit)VRVNSAYQDK (DLLKNGERIEKVEGGGATEG[Cit]VRVNSAYQDK) [J-PG70Cit] | significant shift towards Th1; also recorded: significantly skewed towards a Th1 response | significantly increased | 7.3 | – | – | – | – | – | – | –
2 | DLLKNGERIEKVEGGGATEGRVRVNSAYQDK (Heteroconjugate Construct) [J-PG70, L.E.A.P.S. heteroconjugate of ICBL Peptide J linked to PG70 through a triglycine linker] | significantly skewed towards a Th1 response | higher T cell proliferation as compared to PG70; also recorded: significantly increased | – | modulated the IL-12 intracellular expression | led to matured dendritic cells | – | – | – | – | –
3 | ATEGRVRVNSAYQDK (listed as Homo Sapiens) [PG70, proteoglycan aggrecan (G1) residues 70-84, reference compound] | significantly skewed towards a Th1 response | significantly increased | – | – | – | – | – | – | – | –
4 | DGQEEKAGVVSTGLIGGGATEGRVRVNSAYQDK (Heteroconjugate Construct) [DerG-PG70] | significant shift towards Th2; also recorded: significantly skewed towards a Th2 response | no significant difference | – | – | – | inducing immune deviation in favor of Th2 and Treg cells | ~12 | dramatically suppressed; also recorded: therapeutically effective | much less responsive | only mild ST hyperplasia as shown in (D), but no cell infiltration or cartilage damage
